Test results reported in patent US7731992B2, “Method of inhibiting aromatase with specific dietary supplements” (Triarco Industries, Inc., priority 2003, dated 2010).
Where “and” joins values, the source holds several entries; their conditions need not be identical. Equal values may be shown once. Read-outs that look alike come from different tables or passages of the source.

Columns and labels:
[1] = format: physicochemical
Protocol: The test solutions were prepared by adding the test substances to separate aliquots of dimethyl sulfoxide (DMSO). The target concentration of each test substance was 50 mg/ml. […] Mild heat and sonication were applied to aid in obtaining solutions of the other substances at the desired concentration. The black cohosh powder and echinacea were also centrifuged prior to the use of the supernatant in the assay to sediment any particulate matter present in the solutions.
None were successful. […] Insoluble material that would not sediment when centrifuged was still present at 2 mg/ml, forming a thin, whitish layer on the surface of the solution. This particulate material was avoided when sampling the sterol solution for the assay.

[2] = biological target: T1, human aromatase (CYP19) (Homo sapiens, UniProt P11511); experiment: Inhibition of CYP19-catalyzed dealkylation of DBF (fluorescence, 96 well plates); format: biochemical
T1 construct: purchased Gentest P260; host or cells: baculovirus-infected insect cells (microsomes)
T1 sequence (P11511 1-503): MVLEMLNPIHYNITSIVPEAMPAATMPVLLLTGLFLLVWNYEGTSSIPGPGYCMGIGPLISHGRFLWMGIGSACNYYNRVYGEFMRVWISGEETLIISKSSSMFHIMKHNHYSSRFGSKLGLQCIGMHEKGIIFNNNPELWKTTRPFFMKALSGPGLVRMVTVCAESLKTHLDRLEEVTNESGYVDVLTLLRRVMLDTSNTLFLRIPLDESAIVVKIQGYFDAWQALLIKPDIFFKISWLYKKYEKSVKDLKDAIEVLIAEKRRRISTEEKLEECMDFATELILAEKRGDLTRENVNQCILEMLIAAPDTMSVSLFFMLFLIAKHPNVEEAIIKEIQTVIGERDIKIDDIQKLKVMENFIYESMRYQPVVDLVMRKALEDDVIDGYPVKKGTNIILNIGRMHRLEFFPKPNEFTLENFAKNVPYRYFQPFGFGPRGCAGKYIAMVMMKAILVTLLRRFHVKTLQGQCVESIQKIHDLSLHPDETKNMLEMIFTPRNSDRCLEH
Protocol: The inhibition of aromatase activity was measured in 96 well plates with cDNA-derived enzymes in microsomes prepared from baculovirus-infected insect cells. Dibenzylfluorescien (DBF) was used as a reporter substrate for the activity of the aromatase enzyme.
In the inhibition study, the 50 percent inhibitory concentration (IC50) for each substance was determined with the enzyme. A single concentration of DBF, below the apparent Km, and multiple test substance concentrations, separated by approximately ½ log, were tested in duplicate. Metabolism of the model substrate was assayed by the production of fluorescein metabolite, which was detected and measured using fluorescence.
The amount of solvent during the assay incubations was the same for all test substance concentrations.
As noted above, the assay was conducted in 96 well microplates. Initially, solutions of the substrate in acetonitrite at a concentration equal to the km were prepared. The inhibition of the CYP19-catalyzed dealkylation of DBF was determined, using 4-hydroxyandrostenedione, a known inhibitor of CYP19, as a positive control, and sulfaphenazone, as a negative control. The final concentration of CYP19 (Gentest catalog number P260) was 0.4 pmol/well, and the final concentration of microsomal protein was normalized to 0.25 mg/ml by the addition of the insect cell control protein. The final concentration of substrate was 0.2 μM, and the final concentration of the potassium phosphate buffer was 50 μM. The incubation time was 30 minutes.
A row of 12 wells was used in each test, and each test of a test substance/substrate combination was duplicated in a second row. In each test, wells 1 to 8 contained serial 1:3 dilutions of the inhibitors in which the maximum concentration of phytosterols was 10 μg/ml, and that of the other test substances was 250 μg/ml, assuming complete solubilization at the desired concentrations, i.e., 2 mg/ml for the phytosterols and 50 mg/ml for the other test substances. Wells 9 and 10 contained no inhibitor, and wells 11 and 12 were blanks in which stop solution was added before the enzyme to test for background fluorescence.
The plates were then warmed to 37° C., and incubation was initiated by the addition of the pre-warmed enzyme, additional insect cell control protein in an amount sufficient to provide the desired concentration, and substrate. The final cofactor concentrations were 1.3 μM NADP, 3.3 μM glucose-6-phosphate, and 0.4 U/ml glucose-6-phosphate dehydrogenase. The incubation reactions were stopped after 30 minutes by the addition of 0.075 ml of 2 N NaOH, and fluorescence was measured for each well using a FLUOstar model 403 plate scanner after a post-stop incubation period of about 4 hours. The DBF metabolite fluorescein was measured using an excitation wavelength of about 485 nm and an emission wavelength of about 538 nm.

## Phytosterols
[1]
  Solubility in DMSO (in words): little or no solubility in DMSO

## Nc1ccc(S(=O)(=O)Nc2ccnn2-c2ccccc2)cc1 [Sulfaphenazole, reference compound]
[2]; positive and negative control, DBF 0.2 μM, 30 min, duplicate determinations, read-out: IC50 CYP19/DBF (controls)
  IC50: > 10000 nM

## C[C@]12CCC(=O)C(O)=C1CC[C@@H]1[C@@H]2CC[C@]2(C)C(=O)CC[C@@H]12 [4-Hydroxandrostendione, 4-hydroxyandrostenedione, reference compound]
[2]
  IC50: 11 nM

## Astaxanthin
[2]; cDNA-derived enzyme in microsomes from baculovirus-infected insect cells, DBF 0.2 μM, 30 min, duplicate determinations, concentration assumes complete solubilization
  IC50 CYP19/DBF: 67 µg/mL and 66 µg/mL
[2]; summary statement on Table 2
  Inhibition of aromatase activity (in words): most significant inhibition
[1]
  Solubility in DMSO (in words): dissolve completely
